Measurements reported in PubChem BioAssay AID330 (DTP/NCI, 2004).
Values joined by “and” are separate entries in the source; they are usually repeats but may differ in a detail not shown here. Identical values can stand only once. Inconclusive results and toxic doses are left out. The calls were made as follows: active = survival T/C of 150% or more; inactive = T/C below 125% in these data.

System: P388 leukemia ip, CD2F1 mice, survival T/C
Experiment: NCI In Vivo Anticancer Drug Screen. Data for tumor model P388 Leukemia (intraperitoneal) in CD2F1 (CDF1) mice
Conditions: endpoint: median survival time, higher = longer survival
Summary of the method: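 Mice carrying the transplanted tumor received test compound or vehicle. Survival was recorded in each group, and the value is the treated-group measurement divided by that of the vehicle-treated control group.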

[1] = dose: 50.0 mg/kg/injection, schedule: Q01DX005 (ip), vehicle: saline with Tween-80
[2] = dose: 100.0 mg/kg/injection, schedule: Q01DX005 (ip), vehicle: saline with Tween-80
[3] = dose: 200.0 mg/kg/injection, schedule: Q01DX005 (ip), vehicle: saline with Tween-80
[4] = dose: 100.0 mg/kg/injection, schedule: Q01DX009 (ip), vehicle: saline with Tween-80
[5] = dose: 12.5 mg/kg/injection, schedule: Q01DX009 (ip), vehicle: saline
[6] = dose: 25.0 mg/kg/injection, schedule: Q01DX009 (ip), vehicle: saline
[7] = dose: 50.0 mg/kg/injection, schedule: Q01DX009 (ip), vehicle: saline
[8] = dose: 12.5 mg/kg/injection, schedule: Q01DX009 (ip), vehicle: Klucel (hydroxypropylcellulose) (HPC)
[9] = dose: 25.0 mg/kg/injection, schedule: Q01DX009 (ip), vehicle: Klucel (hydroxypropylcellulose) (HPC)
[10] = dose: 50.0 mg/kg/injection, schedule: Q01DX009 (ip), vehicle: Klucel (hydroxypropylcellulose) (HPC)
[11] = dose: 100.0 mg/kg/injection, schedule: Q01DX009 (ip), vehicle: Klucel (hydroxypropylcellulose) (HPC)
[12] = dose: 200.0 mg/kg/injection, schedule: Q01DX009 (ip), vehicle: Klucel (hydroxypropylcellulose) (HPC)
[13] = dose: 60.0 mg/kg/injection, schedule: Q01DX005 (ip), vehicle: saline with Tween-80
[14] = dose: 120.0 mg/kg/injection, schedule: Q01DX005 (ip), vehicle: saline with Tween-80
[15] = dose: 240.0 mg/kg/injection, schedule: Q01DX005 (ip), vehicle: saline with Tween-80

Measured: T/C

CN1C2C=C(c3ccc(Cl)cc3)CC1CC2 (stereo not given)
inactive: dose: 6.25 mg/kg/injection, schedule: Q01DX005 (ip), vehicle: Klucel (hydroxypropylcellulose) (HPC) 106 % of control | dose: 6.25 mg/kg/injection, schedule: Q01DX005 (ip), vehicle: saline 103 % of control | dose: 12.5 mg/kg/injection, schedule: Q01DX005 (ip), vehicle: Klucel (hydroxypropylcellulose) (HPC) 100 % of control | dose: 12.5 mg/kg/injection, schedule: Q01DX005 (ip), vehicle: saline 114 % of control | dose: 25.0 mg/kg/injection, schedule: Q01DX005 (ip), vehicle: Klucel (hydroxypropylcellulose) (HPC) 109 % of control | dose: 25.0 mg/kg/injection, schedule: Q01DX005 (ip), vehicle: saline 100 % of control

CC(C)CC(NC(=O)OCc1ccccc1)C(=O)NC(Cc1c[nH]c2ccccc12)C(=O)O (stereo not given)
inactive: [1] 100 % of control | [2] 103 % of control | [3] 102 % of control

CC(C)=C[Si](C)(C)C
inactive: dose: 50.0 mg/kg/injection, schedule: Q01DX009 (ip), vehicle: saline with Tween-80 103 % of control | [4] 110 % of control | dose: 200.0 mg/kg/injection, schedule: Q01DX009 (ip), vehicle: saline with Tween-80 103 % of control

CCCCCCCCCCCCCCC[N+]1(CC)CCCC1
inactive: dose: 0.78 mg/kg/injection, schedule: Q01DX009 (ip), vehicle: saline 108 % of control | dose: 1.56 mg/kg/injection, schedule: Q01DX009 (ip), vehicle: saline 114 % of control | dose: 3.12 mg/kg/injection, schedule: Q01DX009 (ip), vehicle: saline 114 % of control

O=[n+]1c2ccccc2n([O-])c2ccccc21.[Cl][Ni][Cl]
inactive: dose: 6.25 mg/kg/injection, schedule: Q04DX003 (ip), vehicle: saline with Tween-80 102 % of control and 94 % of control | dose: 12.5 mg/kg/injection, schedule: Q04DX003 (ip), vehicle: saline with Tween-80 111 % of control and 121 % of control | dose: 25.0 mg/kg/injection, schedule: Q04DX003 (ip), vehicle: saline with Tween-80 115 % of control and 121 % of control | dose: 50.0 mg/kg/injection, schedule: Q04DX003 (ip), vehicle: saline with Tween-80 114 % of control

Nc1nnc(-c2cccc(-c3nnc(N)o3)c2)o1
inactive: dose: 60.0 mg/kg/injection, schedule: Q01DX005 (ip), vehicle: saline 98 % of control | dose: 120.0 mg/kg/injection, schedule: Q01DX005 (ip), vehicle: saline 99 % of control | dose: 240.0 mg/kg/injection, schedule: Q01DX005 (ip), vehicle: saline 102 % of control

CCCC1(CC)CNC(=O)NC1=O (stereo not given)
inactive: [1] 100 % of control | [2] 93 % of control | [3] 99 % of control

Cc1cc(C)c(OC(=O)N(CCCl)N=O)c(C)c1
inactive: dose: 3.12 mg/kg/injection, schedule: Q01DX001 (ip), vehicle: saline with Tween-80 111 % of control | dose: 6.25 mg/kg/injection, schedule: Q01DX001 (ip), vehicle: saline with Tween-80 116 % of control

COC1CC(O)C2OC(c3ccccc3)OCC2O1 (stereo not given)
inactive: dose: 100.0 mg/kg/injection, schedule: Q01DX001 (ip), vehicle: saline with Tween-80 101 % of control | dose: 200.0 mg/kg/injection, schedule: Q01DX001 (ip), vehicle: saline with Tween-80 105 % of control | dose: 400.0 mg/kg/injection, schedule: Q01DX001 (ip), vehicle: saline with Tween-80 99 % of control

C=C1CCN(c2ccccc2Cl)C1=O
inactive: dose: 4.0 mg/kg/injection, schedule: Q01DX009 (ip), vehicle: saline + alcohol 100 % of control and 103 % of control and 109 % of control | dose: 8.0 mg/kg/injection, schedule: Q01DX009 (ip), vehicle: saline + alcohol 100 % of control and 104 % of control and 106 % of control | dose: 16.0 mg/kg/injection, schedule: Q01DX009 (ip), vehicle: saline + alcohol 100 % of control and 112 % of control | dose: 32.0 mg/kg/injection, schedule: Q01DX009 (ip), vehicle: saline + alcohol 99 % of control and 100 % of control and 107 % of control | dose: 64.0 mg/kg/injection, schedule: Q01DX009 (ip), vehicle: saline + alcohol 104 % of control and 105 % of control

COC(=O)C(N)Cc1ccc(OCc2ccccc2)cc1 (stereo not given)
inactive: [5] 102 % of control | [6] 102 % of control | dose: 25.0 mg/kg/injection, schedule: Q04DX002 (ip), vehicle: saline with Tween-80 97 % of control | [7] 100 % of control and 101 % of control | dose: 50.0 mg/kg/injection, schedule: Q04DX002 (ip), vehicle: saline with Tween-80 108 % of control

c1onc2cc3c(cc12)OCO3
inactive: dose: 0.39 mg/kg/injection, schedule: Q01DX009 (ip), vehicle: Klucel (hydroxypropylcellulose) (HPC) 86 % of control and 88 % of control | dose: 0.78 mg/kg/injection, schedule: Q01DX009 (ip), vehicle: Klucel (hydroxypropylcellulose) (HPC) 89 % of control and 95 % of control | dose: 1.56 mg/kg/injection, schedule: Q01DX009 (ip), vehicle: Klucel (hydroxypropylcellulose) (HPC) 124 % of control and 89 % of control and 93 % of control | dose: 3.13 mg/kg/injection, schedule: Q01DX009 (ip), vehicle: Klucel (hydroxypropylcellulose) (HPC) 99 % of control and 92 % of control | [8] 89 % of control | [9] 93 % of control

COc1cc(N=Nc2c(Cl)cc([N+](=O)[O-])cc2Cl)c(OC)cc1N=Nc1ccc(N)nc1N
inactive: [1] 99 % of control | [2] 100 % of control | [3] 101 % of control

COc1ccc(C2CCCCCC2)c(OC)c1OC
inactive: [10] 98 % of control and 108 % of control | [11] 113 % of control | [12] 103 % of control and 105 % of control

O=C(O)c1ccc2c3c(ncnc13)-c1ccccc1C2=O
inactive: dose: 6.25 mg/kg/injection, schedule: Q01DX009 (ip), vehicle: Klucel (hydroxypropylcellulose) (HPC) 103 % of control | [8] 111 % of control and 96 % of control | [9] 112 % of control and 96 % of control | [10] 105 % of control and 109 % of control and 111 % of control | [11] 100 % of control | [12] 109 % of control

O=C(NCCCl)OCC1=C(COC(=O)NCCCl)C(=O)c2ccccc2C1=O
inactive: dose: 12.5 mg/kg/injection, schedule: Q01DX005 (ip), vehicle: saline with Tween-80 100 % of control and 102 % of control | dose: 25.0 mg/kg/injection, schedule: Q01DX005 (ip), vehicle: saline with Tween-80 101 % of control and 106 % of control | [1] 110 % of control | [2] 113 % of control

COc1cc2c(cc1OC)C1N(CC2)C(=O)NC1(C)C (stereo not given)
inactive: [13] 97 % of control | [14] 103 % of control | [15] 98 % of control

CCn1c(=O)c(Cl)c2n(CC)c3ccccc3n2c1=O
inactive: [13] 97 % of control | [14] 89 % of control | [15] 87 % of control

CC(C)C(CO)NC(=O)c1ccccc1 (stereo not given)
inactive: dose: 100.0 mg/kg/injection, schedule: Q04DX002 (ip), vehicle: Klucel (hydroxypropylcellulose) (HPC) 95 % of control | dose: 200.0 mg/kg/injection, schedule: Q04DX002 (ip), vehicle: Klucel (hydroxypropylcellulose) (HPC) 96 % of control | dose: 400.0 mg/kg/injection, schedule: Q04DX002 (ip), vehicle: Klucel (hydroxypropylcellulose) (HPC) 95 % of control

O=C1CSC(c2cc(F)ccc2F)N1c1nncs1 (stereo not given)
inactive: [13] 107 % of control | [14] 109 % of control | [15] 104 % of control

Cc1cc2nc3ccc(O)cc3[n+](C)c2cc1N
inactive: [5] 98 % of control and 103 % of control | [6] 100 % of control and 106 % of control | [7] 96 % of control and 97 % of control | dose: 100.0 mg/kg/injection, schedule: Q01DX009 (ip), vehicle: saline 99 % of control and 96 % of control

CNc1ccccc1C(=O)N1CCc2c([nH]c3ccccc23)C1=O
inactive: dose: 25.0 mg/kg/injection, schedule: Q01DX009 (ip), vehicle: saline with Tween-80 98 % of control | [4] 93 % of control
